Like-named read-outs stand apart in the source and are kept apart here.
Legend:
U266 multiple myeloma = assay: Cytotoxicity of epoxyketones, CellTitre-Glo, 48 h; format: cell-based; conditions: Homo sapiens, U-266, U266, 48 h
Protocol: (§1) Cytotoxicity Assays. Cancer cell lines (ATCC: U266 multiple myeloma, EL4 mouse lymphoma, Raji B-cell lymphoma) were cultured in Roswell Park Memorial Institute (RPMI) medium supplemented with 10% fetal bovine serum (FBS), 2 mM L-glutamine, 100 IU/mL penicillin, 100 μg/mL nonessential amino acids, 1 mM sodium pyruvate, and 57 μM β-mercaptoethanol. Cells (90 μL) were seeded in the inner 60 wells of an opaque-wall, clear flat-bottom 96-well plate (Corning/Falcon, 351177) at 20,000 cells per well. The outer perimeter wells were filled with 200 μL PBS to reduce evaporation in the central 60 wells. Epoxyketones 12 (20 mM in DMSO) were diluted in RPMI media to 1 mM (5% DMSO final concentration). Each epoxyketone was then diluted log-fold into 10 concentrations with 5% DMSO in RPMI. Each epoxyketone solution (10 μL) was added to the cells for a 0.5% DMSO final concentration across all wells and final epoxyketone concentrations of 100-0.005 μM. Negative control wells were treated with 10 μL of 5% DMSO in RPMI. Cells were incubated with compounds for 48 h, then cytotoxicity was measured with the CellTitre-Glo assay (Promega G9241).

EL4 mouse lymphoma = assay: Cytotoxicity of epoxyketones, CellTitre-Glo, 48 h; format: cell-based; conditions: EL4, 48 h
Protocol: as §1

Raji B-cell lymphoma = assay: Cytotoxicity of epoxyketones, CellTitre-Glo, 48 h; format: cell-based; conditions: Homo sapiens
Protocol: as §1

EL4 lymphoma cells = conditions: reported (prepared by total synthesis); cited from earlier work
[1] = system: chymotrypsin-like activity of the proteasome, Jurkat cell lysates; assay: Proteasome inhibition assay (abcam Proteasome Activity Assay Kit); format: biochemical; conditions: 10 μM concentration, 1 h at 37° C.
Protocol: Epoxyketones 12 were analyzed for proteasome inhibition using a Proteasome Activity Assay Kit (abcam ab107921). The protocol was followed as described by the manufacturer, except that the proteasome sample supplied in the kit was diluted by 10-fold more than indicated in the manual to increase the number of samples that could be analyzed per kit. Thus, the supplied proteasome sample was resuspended in 100 μL ddH2O, then further diluted with 900 μL of the supplied assay buffer. The supplied proteasome inhibitor, MG-132 (benzyl [(2S)-4-methyl-1-{[(2S)-4-methyl-1-{[(2S)-4-methyl-1-oxopentan-2-yl]amino}-1-oxopentan-2-yl]amino}-1-oxopentan-2-yl]carbamate; structure illustrated below), was also diluted 10-fold to a working concentration of 1 mM in DMSO. The epoxyketones 12 and epoxomicin positive control (Selleck Chemicals) were also diluted to working stocks of 1 mM in DMSO. Proteasome samples (99 μL) were added to a white, opaque 96-well plate (PerkinElmer, OptiPlate-96) and treated with 1 μL of compound solutions (10 μM final concentration). Samples were incubated for 1 h at 37° C. then analyzed for fluorescence (λ^ex 350 nm, λ^em 440 nm) on a plate reader (Molecular Devices Spectramax M3). Three separate assay kits were used as biological replicates. Data were normalized to the average signal from the no-inhibitor negative control. […]

CC(C)CCCCC(=O)N[C@@H](CO)C(=O)N[C@@H](CC(C)C)C(=O)[C@@]1(C)CO1 [Compound 12a, N-[(1S)-2-Hydroxy-1-{[(2S)-4-methyl-1-[(2R)-2-methyloxiran-2-yl]-1-oxopentan-2-yl]carbamoyl}ethyl]-6-methylheptanamide]
IC50 (U266 multiple myeloma; read-out: IC50): 230 nM
IC50 (U266 multiple myeloma; read-out: log IC50 (converted)): 229 nM
IC50 (EL4 mouse lymphoma; read-out: IC50): 440 nM
IC50 (EL4 mouse lymphoma; read-out: log IC50 (converted)): 407 nM
IC50 (Raji B-cell lymphoma; read-out: IC50): 200 nM
IC50 (Raji B-cell lymphoma; read-out: log IC50 (converted)): 195 nM
IC50 (EL4 lymphoma cells): 260 ± 50 nM
inhibition of proteasome activity [1]: at a level comparable to that of epoxomicin

Source: US20260234116A1, “CYTOTOXIC EPOXYKETONE COMPOUNDS, PRECURSORS, COMPOSITIONS, AND METHODS OF USE” (Memorial Sloan-Kettering Cancer Center, priority 2023, published 2026)
